# Laboratory results published in patent US9101566B2, “Fermentation product of cereal plant-derived material and immunomodulator” (KIRIN HOLDINGS KABUSHIKI KAISHA, priority 2009, dated 2015).
# Tests used:
# [1] = test system: mDCs (CD11b+CD11c+B220-) of EAE mice; assay: EAE model, day 11 autopsy: mDC activation markers; assay type: in vivo, mouse; details: autopsy on day 11
# Description: On day 0, the 35-55 peptide (MOG35-55, Operon), a glycoprotein of myelin oligodendroglial cells, as an antigen was mixed with complete Freund's adjuvant (CFA, Difco) and then the mixture was subcutaneously administered at a dose of 200 μg/animal. Subsequently, pertussis toxin (Wako Pure Chemical Industries, Japan) was intraperitoneally administered at a dose of 200 ng/animal on day 1 and day 3, thereby inducing the onset of multiple sclerosis. During days 7 to 18, 14-DHE was intraperitoneally administered at a dose of 10 μg/animal once a day. To the vehicle group, the following solvent for 14-DHE was administered: 10% ethanol (Wako Pure Chemical Industries, Japan)/10% Cremophor (Wako Pure Chemical Industries, Japan)/80% PBS (Takara, Japan). Mice were autopsied on day 11 (when inflammation was thought to take place in vivo) to obtain biochemical data. […] A gate was set on mDCs, which are CD11b^+CD11c^+B220^− cells, and I-A/I-E (MHC class II), CD86, and CD80 were measured as activation markers.
# [2] = test system: CD4+ T cells in regional lymph node cells and spleen cells of EAE mice; assay: EAE model, day 11 autopsy: CD4+ T cell proliferation (CFSE); assay type: in vivo, mouse
# Description: On day 0, the 35-55 peptide (MOG35-55, Operon), a glycoprotein of myelin oligodendroglial cells, as an antigen was mixed with complete Freund's adjuvant (CFA, Difco) and then the mixture was subcutaneously administered at a dose of 200 μg/animal. Subsequently, pertussis toxin (Wako Pure Chemical Industries, Japan) was intraperitoneally administered at a dose of 200 ng/animal on day 1 and day 3, thereby inducing the onset of multiple sclerosis. During days 7 to 18, 14-DHE was intraperitoneally administered at a dose of 10 μg/animal once a day. To the vehicle group, the following solvent for 14-DHE was administered: 10% ethanol (Wako Pure Chemical Industries, Japan)/10% Cremophor (Wako Pure Chemical Industries, Japan)/80% PBS (Takara, Japan).
# Mice were autopsied on day 11 (when inflammation was thought to take place in vivo) to obtain biochemical data.
# (3) Regional lymph node cells and spleen cells were stained using the CellTrace CFSE Proliferation kit (Molecular Probes). The stained cells were seeded at a concentration of 1×10^6 cells/mL and then cultured for 3 days with stimulation with 2 μM MOG. Cells were recovered, stained with CD3-PerCP and CD4-APC, and then subjected to FACS analysis. Cell proliferation was evaluated as a proportion of cells with decreased CFSE fluorescence intensity in all cells.
# [3] = test system: human DCs from peripheral blood CD14-positive cells; assay: Human regulatory DC-inducing activity of 14-DHE (Example 16); assay type: cell-based; details: 14-DHE 1, 3 or 10 μM; ergosterol 10 μM; LPS/IFN-γ or cytokine cocktail 24 h
# Description: Mononuclear cells were prepared from human peripheral blood by density-gradient centrifugation using Ficoll-Paque (GE Healthcare, Japan). These cells were subjected to positive selection using anti-human CD14 MACS beads (Miltenyi Biotec), so that CD14-positive cells were obtained. CD14-positive cells were cultured in RPMI1640 media (containing 10% FBS (Invitrogen), 50 μmol/L 2-mercaptoethanol (Wako Pure Chemical Industries, Japan), 50 U/mL penicillin, and 50 μg/mL streptomycin (Gibco) (Sigma Aldrich)) supplemented with recombinant human GM-CSF (800 U/mL, Leukine, Berlex) and recombinant human IL-4 (100 ng/mL, Peprotech). During culture, medium exchange was performed once every 2 days. On day 7 of culture, 14-DHE was added at a concentration of 1 μM, 3 μM, or 10 μM. To a control, 10 μM ergosterol, which was a related substance, was added. Also, to a negative control, 1% ethanol, which was a solvent for 14-DHE, was added. The cells were recovered on day 8 of culture, counted, and then suspended at a density of 3×10^5 cells/mL in the above media. To cell suspensions, 1 μg/mL LPS and 100 ng/mL IFN-γ (both, Sigma Aldrich), or cytokine cocktail (1 μg/mL PGE2 (Sigma Aldrich), 10 ng/mL TNF-α, 2 μg/mL IL-6, and 10 ng/mL IL-1β (3 (all, BD Bioscience)) were added, followed by 24-hour culture. After culture, the cells were stained for CD86, HLA-DR, and CD80. Antibodies used were all produced by BD Bioscience. The gate of DCs was set by FSC and SSC, and the expression levels of these cell surface markers were analyzed.
# [4] = test system: DCs induced from C57BL/6 mouse bone marrow cells; assay: Timing and duration of the DC-activation-suppressing effect of 14-DHE (Example 14); assay type: cell-based
# Description: In a manner similar to those of the Examples above, C57BL/6 mouse bone marrow cells were prepared and then DCs were induced using Flt-3. The concentration of the added 14-DHE was 3 μM in all cases. The drug residence time in the culture system was controlled by medium exchange. Inflammation was induced using 5 ng/mL LPS, and then the expression level of CD86 was measured using a flow cytometer, so that the characteristics of regulatory DCs were determined. At this time, the cells that had been treated with LPS and without 14-DHE were used as control cells. The median fluorescence intensity (Median Fluorescence Intensity: MFI) of CD86 in the cells treated with 14-DHE was divided by MFI of untreated cells. The determined values indicate: 1 or more, no effect (score: −); 0.7-0.99, weak effect (score: +); 0.4-0.69, moderate effect (score: ++); and 0.4 or less, strong effect (score: +++).
structure (smiles),measurement,setting,value
"CC(C)[C@@H](C)/C=C/[C@@H](C)[C@H]1CC=C2C3=CC=C4C[C@@H](O)CC[C@]4(C)[C@H]3CC[C@@]21C [Sample 14-DHE, ergosta-5,7,14,22-tetraen-3β-ol]","CD80 on mDCs, lymph node",[1],significant decrease
same,"CD86 on mDCs, lymph node",[1],decreasing trend
same,"I-A/I-E (MHC class II) on mDCs, lymph node",[1],decreasing trend
same,"I-A/I-E on mDCs, spinal cord",[1],significant decrease
same,proliferation rate of CD4+ T cells in lymph node cells,[2],decreasing trend
same,proliferation rate of CD4+ T cells in spleen cells,[2]; with or without re-stimulation with MOG antigen,significant decrease
same,expression level of CD80 on human DCs,[3],decreased
same,expression level of CD86 on human DCs,[3],decreased
same,expression level of MHC class II molecule HLA-DR on human DCs,[3],decreased
same,duration of the effect,[4]; 14-DHE 3 μM,72 h
same,DC activation (CD86)-suppressing effect,[4]; 14-DHE 3 μM added for 5 or 6 days from initiation of differentiation,the degree of the effect significantly decreased
same,DC activation (CD86)-suppressing effect,"[4]; 14-DHE 3 μM added for 7 days starting from initiation of DC differentiation, LPS 5 ng/mL",strong effect
same,DC activation (CD86)-suppressing effect,[4]; 14-DHE 3 μM addition begun on day 7 when DC differentiation was completed,strong effect
same,DC activation (CD86)-suppressing effect,[4]; 14-DHE absent at the time of adding LPS,decrease in the effect was observed
same,time within which the effect significantly decreased,[4]; addition begun on day 0 or on day 7,≤ 72 h
same,time required for 14-DHE to exhibit its effect,[4]; addition from initiation of DC differentiation,≥ 7 days
